Test results taken from patent US20030235904A1, “Bacterial parts washer, composition and method of use” (Osprey Biotechnics, Inc., priority 2002, published 2003).

What was measured:
[1] = tested on: Pseudomonas putida NRRL-B-18118; assay: Shelf-life of the pseudomonad stored with NEODOL 91-6 (plate counts); format: cell-based
Method: The Pseudomonas putida NRRL-B-18118 was stabilized in a liquid according to the method described in U.S. Pat. No. 5,980,747 to Vandenbergh. Briefly, sodium nitrate was mixed with water in an amount of 0.26 gm per 100 gm (mL) of water. This produced a 0.26% solution by weight. To this solution, Pseudomonas putida NRRL-B-18118 was added in an amount to provide a final concentration of 1.4×10^8 CFU/mL of the pseudomonad and a final concentration of nitrate of 0.13%. Optionally, a buffering amount of monoammonium phosphate was added at a ratio between about 1:1 to 125:1 sodium nitrate to monoammonium phosphate to enhance the preservation of the pseudomonad at 25° C.
Pseudomonas putida NRRL-B-18118 was stabilized in a liquid according as described in Example 1. The stabilized pseudomonads were then mixed with the ethoxylated surfactant NEODOL 91-6 at the appropriate amount to arrive at the appropriate fixed concentration. The solutions were incubated at 25° C. At various times, aliquots were removed and plated on agar plates and the colony forming units (CFU) per mL were recorded.

[2] = tested on: Pseudomonas putida NRRL-B-18118; assay: Oxygen uptake (BOD analyzer) with NEODOL 91-6 and 1% motor oil; format: cell-based; design: oxygen uptake: unit not given here; settings: for oxygen uptake: 25° C.
Method: The assay measured oxygen uptake of Pseudomonas putida NRRL-B-18118 in the presence 0.001 to 1.0% NEODOL 91-6 and 1% motor oil in a minimal media broth. The pseudomonads were suspended at 10^8 CFU/mL and placed in a HATCH Model 2173B biological oxygen demand (BOD) analyzer at 25° C. […] was measured over a 48 hour time period.

Q: How did the “CFU/mL (time)” value ([1]; 0.5% NEODOL 91-6, 25° C., 1 Month) turn out when “(C9-C11) alkyl alcohol ethoxylate (polyethyleneglycol-(C9-C11)-ether) [NEODOL 91-6]” was run?
A: Its value is 5.0 × 10^7 CFU/mL.

Q: And the “CFU/mL (time)” value ([1]; 0.5% NEODOL 91-6, 25° C., 3 Months)?
A: Its value is 1.0 × 10^7 CFU/mL.

Q: What about the “CFU/mL (time)” value ([1]; 0.5% NEODOL 91-6, 25° C., 5 Months) of the same substance?
A: Its value is 3.0 × 10^7 CFU/mL.

Q: What about the “CFU/mL (time)” value ([1]; 0.5% NEODOL 91-6, 25° C., 7 Months) of the same substance?
A: Its value is 6.0 × 10^6 CFU/mL.

Q: And the “CFU/mL (time)” value ([1]; 0.5% NEODOL 91-6, 25° C., Zero (h))?
A: Its value is 1.4 × 10^8 CFU/mL.

Q: What about the “CFU/mL (time)” value ([1]; 1.0% NEODOL 91-6, 25° C., 1 Month) of the same substance?
A: The value was 5.0 × 10^7 CFU/mL.

Q: And the “CFU/mL (time)” value ([1]; 1.0% NEODOL 91-6, 25° C., 3 Months)?
A: Its value is 1.5 × 10^7 CFU/mL.

Q: What about the “CFU/mL (time)” value ([1]; 1.0% NEODOL 91-6, 25° C., 5 Months) of the same substance?
A: The value was 1.0 × 10^7 CFU/mL.

Q: What about the “CFU/mL (time)” value ([1]; 1.0% NEODOL 91-6, 25° C., 7 Months) of the same substance?
A: The value was 1.0 × 10^6 CFU/mL.

Q: And the “CFU/mL (time)” value ([1]; 1.0% NEODOL 91-6, 25° C., Zero (h))?
A: Its value is 1.4 × 10^8 CFU/mL.

Q: What about the “CFU/mL (time)” value ([1]; 5.0% NEODOL 91-6, 25° C., 1 Month) of the same substance?
A: Its value is 5.0 × 10^7 CFU/mL.

Q: And the “CFU/mL (time)” value ([1]; 5.0% NEODOL 91-6, 25° C., 3 Months)?
A: Its value is 1.4 × 10^7 CFU/mL.

Q: What about the “CFU/mL (time)” value ([1]; 5.0% NEODOL 91-6, 25° C., 5 Months) of the same substance?
A: The value was 1.0 × 10^7 CFU/mL.

Q: What about the “CFU/mL (time)” value ([1]; 5.0% NEODOL 91-6, 25° C., 7 Months) of the same substance?
A: Its value is 1.0 × 10^6 CFU/mL.

Q: And the “CFU/mL (time)” value ([1]; 5.0% NEODOL 91-6, 25° C., Zero (h))?
A: Its value is 1.4 × 10^8 CFU/mL.

Q: And the “effect on shelf-life of Pseudomonas putida NRRL-B-18118” value ([1]; NEODOL 91-6 0.5 to 5% in the storage solution)?
A: Its value is “not adversely affected”.

Q: What about the “decrease in viability of the pseudomonads” value ([1]; stored in the presence of NEODOL 91-6, over seven months) of the same substance?
A: Its value is “two log decrease”.

Q: What about the oxygen uptake ([2]; 0.001% NEODOL 91-6, 1% motor oil, 0 h) of the same substance?
A: Its oxygen uptake is 0.

Q: What about the oxygen uptake ([2]; 0.001% NEODOL 91-6, 1% motor oil, 12 h) of the same substance?
A: The oxygen uptake was 40.

Q: What about the oxygen uptake ([2]; 0.001% NEODOL 91-6, 1% motor oil, 21 h) of the same substance?
A: The oxygen uptake was 100.

Q: What about the oxygen uptake ([2]; 0.001% NEODOL 91-6, 1% motor oil, 28 h) of the same substance?
A: The oxygen uptake was 140.

Q: And the oxygen uptake ([2]; 0.001% NEODOL 91-6, 1% motor oil, 31 h)?
A: The oxygen uptake was 160.

Q: What about the oxygen uptake ([2]; 0.001% NEODOL 91-6, 1% motor oil, 48 h) of the same substance?
A: The oxygen uptake was 200.

Q: And the oxygen uptake ([2]; 0.01% NEODOL 91-6, 1% motor oil, 0 h)?
A: Its oxygen uptake is 0.

Q: What about the oxygen uptake ([2]; 0.01% NEODOL 91-6, 1% motor oil, 12 h) of the same substance?
A: The oxygen uptake was 40.

Q: And the oxygen uptake ([2]; 0.01% NEODOL 91-6, 1% motor oil, 21 h)?
A: Its oxygen uptake is 40.

Q: What about the oxygen uptake ([2]; 0.01% NEODOL 91-6, 1% motor oil, 28 h) of the same substance?
A: Its oxygen uptake is 60.

Q: What about the oxygen uptake ([2]; 0.01% NEODOL 91-6, 1% motor oil, 31 h) of the same substance?
A: The oxygen uptake was 60.

Q: And the oxygen uptake ([2]; 0.01% NEODOL 91-6, 1% motor oil, 48 h)?
A: The oxygen uptake was 110.

Q: And the oxygen uptake ([2]; 0.1% NEODOL 91-6, 1% motor oil, 0 h)?
A: Its oxygen uptake is 0.

Q: And the oxygen uptake ([2]; 0.1% NEODOL 91-6, 1% motor oil, 12 h)?
A: Its oxygen uptake is 20.

Q: And the oxygen uptake ([2]; 0.1% NEODOL 91-6, 1% motor oil, 21 h)?
A: The oxygen uptake was 40.

Q: And the oxygen uptake ([2]; 0.1% NEODOL 91-6, 1% motor oil, 28 h)?
A: The oxygen uptake was 60.

Q: And the oxygen uptake ([2]; 0.1% NEODOL 91-6, 1% motor oil, 31 h)?
A: The oxygen uptake was 80.

Q: What about the oxygen uptake ([2]; 0.1% NEODOL 91-6, 1% motor oil, 48 h) of the same substance?
A: The oxygen uptake was 110.

Q: And the oxygen uptake ([2]; 0.5% NEODOL 91-6, 1% motor oil, 0 h)?
A: The oxygen uptake was 0.

Q: What about the oxygen uptake ([2]; 0.5% NEODOL 91-6, 1% motor oil, 12 h) of the same substance?
A: Its oxygen uptake is 20.

Q: And the oxygen uptake ([2]; 0.5% NEODOL 91-6, 1% motor oil, 21 h)?
A: Its oxygen uptake is 40.

Q: What about the oxygen uptake ([2]; 0.5% NEODOL 91-6, 1% motor oil, 28 h) of the same substance?
A: The oxygen uptake was 50.

Q: What about the oxygen uptake ([2]; 0.5% NEODOL 91-6, 1% motor oil, 31 h) of the same substance?
A: The oxygen uptake was 70.

Q: And the oxygen uptake ([2]; 0.5% NEODOL 91-6, 1% motor oil, 48 h)?
A: Its oxygen uptake is 90.

Q: And the oxygen uptake ([2]; 1.0% NEODOL 91-6, 1% motor oil, 0 h)?
A: The oxygen uptake was 0.

Q: And the oxygen uptake ([2]; 1.0% NEODOL 91-6, 1% motor oil, 12 h)?
A: The oxygen uptake was 10.

Q: What about the oxygen uptake ([2]; 1.0% NEODOL 91-6, 1% motor oil, 21 h) of the same substance?
A: Its oxygen uptake is 20.

Q: And the oxygen uptake ([2]; 1.0% NEODOL 91-6, 1% motor oil, 28 h)?
A: The oxygen uptake was 30.

Q: And the oxygen uptake ([2]; 1.0% NEODOL 91-6, 1% motor oil, 31 h)?
A: Its oxygen uptake is 50.

Q: What about the oxygen uptake ([2]; 1.0% NEODOL 91-6, 1% motor oil, 48 h) of the same substance?
A: The oxygen uptake was 80.

Q: What about the “function of the pseudomonads in the presence of NEODOL 91-6” value ([2]; tested NEODOL 91-6 concentrations, 48 hour time period) of the same substance?
A: Its value is “remained functional”.
